In one series the test system is CCI traumatized animals. The series can be described thus: Water Exploration Test (WET) after Controlled Cortical Impact (CCI). It counts as in vivo, rat. Also noted: key to Entry number in CZ, Conclusion vs. CCI-D0: ↓: decrease of analyzed variable with p < 0.05; ?: stability of analyzed variable; ↑↑: increase in analyzed variable with p < 0.01. As to conditions: Day 27; 20 mg/kg (CCI-D2). As for the experimental part:
CCI was performed with an electromagnetic impact device as described (MyNeurolab, St. Louis, Mo.; Brody et al, 2007). Anesthesized rats were subjected to a single right lateral CCI, with the following parameters impact centered 4.0 mm anterior to lambda and 4.5 mm […] of midline, within the craniotomy of the animal. The impact was set at a velocity of 4 m/s with a sustained depression of 200 ms, using a 5.0 mm tip.
The less anxious is a rat, the more time it will, spend “floating” (null velocity) in the central zone (see Fares-2009).
More precisely, a circular tank (180 cm diameter, 60 cm high) is filled with water maintained at 27° C. to a depth of 40 cm. The water is made opaque by adding black gouache, allowing the VideoTrack system (ViewPoint) to detect the white-coloured rat. This tank is divided into 4 identical quadrants (6,358 cm2 each) using two 180 cm long opaque plastic separators. In each quadrant, one rat is introduced with its head facing the corner between the separator and the tank's wall. It is noteworthy to emphasize that 4 rats can be tested simultaneously using the 4 quadrants. […] Thus, the distance, the number of entries, the time spent, and the velocity profile in the CZ are measured to assess anxiety-like behaviour. […]
The effect of 3-methoxy-PREG (MAP4343) on anxiety induced by trauma was analyzed using the WET test.

The next series concerns GFAP. The series can be described thus: GFAP immunohistochemistry after Lateral Fluid Percussion (LFP). It counts as in vivo, rat. An excerpt: After anesthesia induction, the animal was placed on a stereotaxic frame. To expose the dura mater, craniotomy (diameter 5 mm) was under the left parietal cortex (−3.6 mm from Bregma, −3.0 mm from midline). A female Luer-Lock was placed over the craniotomy and was secured to the parietal bone with dental cement. The Luer-Lock was then filled with isotonic saline to create an interface with the dura meter.
Trauma was induced by a fluid percussion device (Custom Design and Manufacturing, United. Kingdom) (Besson et al., 2003) it is a cylindrical tank (60 cm long), with a piston on one side, over which a hammer exercises a constraint, and a male Luer-Lock on the other side. […] The amplitude of each shock wave was measured via a pressure transducer connected to the terminal portion of the device. The pressure signal was recorded on an oscilloscope. […]
After mounting on Superfrost slides, frozen sections were dried for 90 minutes at room temperature and stored at −80° C. until use. […] Immunostaining was quantitatively assessed by optical density measurements directly from the section image (Image J). […]
GFAP expression was measured by immunohistochemistry at day 35 post-trauma in injured and uninjured cortex, thalamus and hippocampus of LFP traumatized, rats treated with vehicle (sesame oil), or 3-methoxy-PREG (MAP4343) at 10 mg/kg or 20 mg/kg, with first injection at 2 hours post-trauma.

Series [1] relates to α-tubulin in rat hippocampus. The series can be described thus: Microtubule dynamics in rat hippocampus (Tyr/Glu-Tub ratio, Acet-Tub). The class given is in vivo. Conditions: 10 mg/kg subcutaneously, single administration. An excerpt:
Mean±SEM, n=6 per group. **P<0.01, *P<0.5 vs sesame oil.
The effects produced by neurosteroids were compared with those produced by acute administration of the antidepressant drug fluoxetine (selective serotonin reuptake inhibitor SSRI).
Neurosteroids and 3-Methoxy-PREG (43B) Levels

The nature of series [2]: In vivo toxicity, daily injection for one month. As to conditions: rats, 48 mg/kg daily injection for one month. Details: species or system rat.
Series [3] addresses purified tubulin and MAP2 (Homo sapiens, UniProt P11137). The series can be described thus: MAP2-induced polymerization of microtubules in vitro (optical density at 345 nm). It counts as biochemical. As to the method:
Purified MAP2 and tubulin are mixed in the presence of GTP at 4° C. in a spectrophotometer cuvette. Polymerization is induced by heating at 37° C. and is followed by the increase in optical density (OD) which indicates the quantity of polymers formed.
This in vitro test measures the effect of molecules on the MAP2-induced polymerization of microtubules. This polymerization occurs when MAP2 proteins and tubulin are mixed at adequate concentrations in the presence of GTP. It is accompanied by an increase in optical density measured at 345 nm for 15 to 30 minutes with a UNICON spectrophotometer thermostated at 37° C. (FIG. 1).
Activity is measured by the increase in optical density at 345 nm of a mixture of purified tubulin and MAP2, incubated at 37° C. in the presence of GTP.

Where [4] appears, read: 40 μM, compared to solvent alone.

Chain of purified tubulin and MAP2 (P11137 whole entry): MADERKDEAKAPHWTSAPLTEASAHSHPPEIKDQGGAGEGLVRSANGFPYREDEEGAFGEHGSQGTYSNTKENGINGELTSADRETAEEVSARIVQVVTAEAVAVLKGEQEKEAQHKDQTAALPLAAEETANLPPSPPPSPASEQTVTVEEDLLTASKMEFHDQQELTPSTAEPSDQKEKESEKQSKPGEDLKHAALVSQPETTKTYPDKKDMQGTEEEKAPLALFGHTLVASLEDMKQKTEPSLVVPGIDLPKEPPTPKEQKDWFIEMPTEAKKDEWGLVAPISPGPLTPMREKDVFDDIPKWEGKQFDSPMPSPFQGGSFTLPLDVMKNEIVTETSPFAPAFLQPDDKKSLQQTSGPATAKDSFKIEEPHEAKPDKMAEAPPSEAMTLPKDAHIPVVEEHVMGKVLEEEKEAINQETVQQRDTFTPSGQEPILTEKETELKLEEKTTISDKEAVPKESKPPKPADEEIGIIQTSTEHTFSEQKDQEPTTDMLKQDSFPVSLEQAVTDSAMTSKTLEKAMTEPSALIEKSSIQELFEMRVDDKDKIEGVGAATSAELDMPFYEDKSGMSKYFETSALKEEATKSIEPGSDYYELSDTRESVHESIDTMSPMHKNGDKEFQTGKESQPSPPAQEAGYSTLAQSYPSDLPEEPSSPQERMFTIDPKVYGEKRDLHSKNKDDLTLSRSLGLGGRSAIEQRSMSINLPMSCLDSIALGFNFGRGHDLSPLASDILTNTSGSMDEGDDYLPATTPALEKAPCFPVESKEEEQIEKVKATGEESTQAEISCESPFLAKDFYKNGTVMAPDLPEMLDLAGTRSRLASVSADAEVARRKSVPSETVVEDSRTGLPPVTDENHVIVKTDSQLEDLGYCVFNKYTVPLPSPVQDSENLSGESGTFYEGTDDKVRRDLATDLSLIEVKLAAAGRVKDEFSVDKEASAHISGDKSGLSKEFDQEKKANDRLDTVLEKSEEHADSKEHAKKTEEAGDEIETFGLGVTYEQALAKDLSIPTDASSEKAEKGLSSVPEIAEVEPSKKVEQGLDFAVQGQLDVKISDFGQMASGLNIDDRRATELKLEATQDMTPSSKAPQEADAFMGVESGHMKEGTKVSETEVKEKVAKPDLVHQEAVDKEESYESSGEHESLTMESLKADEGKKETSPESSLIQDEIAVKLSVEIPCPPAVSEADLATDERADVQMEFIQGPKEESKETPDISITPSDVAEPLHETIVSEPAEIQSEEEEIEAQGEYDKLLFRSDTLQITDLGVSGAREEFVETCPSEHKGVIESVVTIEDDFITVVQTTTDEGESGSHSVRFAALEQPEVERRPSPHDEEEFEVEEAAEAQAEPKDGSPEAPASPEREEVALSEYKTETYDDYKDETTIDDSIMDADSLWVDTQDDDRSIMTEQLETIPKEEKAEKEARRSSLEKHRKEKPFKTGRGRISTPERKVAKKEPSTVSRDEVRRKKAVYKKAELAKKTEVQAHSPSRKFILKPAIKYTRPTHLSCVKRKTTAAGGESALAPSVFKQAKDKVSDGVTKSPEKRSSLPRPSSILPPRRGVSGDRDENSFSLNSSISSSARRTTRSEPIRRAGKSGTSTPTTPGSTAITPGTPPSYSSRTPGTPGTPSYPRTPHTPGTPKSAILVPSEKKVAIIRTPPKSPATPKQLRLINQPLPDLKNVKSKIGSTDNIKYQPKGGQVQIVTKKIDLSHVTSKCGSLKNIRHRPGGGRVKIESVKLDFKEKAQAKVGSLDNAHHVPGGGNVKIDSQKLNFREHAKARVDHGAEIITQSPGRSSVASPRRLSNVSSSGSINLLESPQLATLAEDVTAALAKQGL

`CO[C@H]1CC[C@@]2(C)C(=CC[C@H]3[C@@H]4CC[C@H](C(C)=O)[C@@]4(C)CC[C@@H]32)C1` [3-methoxy-PREG, 3β-methoxy-pregna-5-ene-20-one]: in the series with CCI traumatized animals, the “Entry number in CZ, Conclusion vs. CCI-D0” value was “↑↑” and the “Time spent in CZ, Conclusion vs. CCI-D0” value is “↑”. In addition, the “astrocytes GFAP immunoreactivity in the injured cortex” value with GFAP (day 35, 10 mg/kg or 20 mg/kg, first injection 2 hours post-trauma) is “highly decreased”. In the series on GFAP (day 35, especially Dose2 (20 mg/kg)), the “astrocytes immunoreactivity in the injured thalamus” value was “strongly decreases astrocytes immunoreactivity”. Moreover, in series [1], the “Acet-Tub (stable acetylated α-tubulin)” value is on record as “significantly decreased”. Moreover, the Tyr/Glu-Tub ratio result in series [1] (3 h) is listed as “significantly increased”. Also, the “average weight and behavior” value in series [2] is recorded as “affected neither average weight nor behavior”. Besides, the microtubule polymerization result in series [3] was “activates microtubule polymerization”. In series [3] (setting [4]), the “Lag time of microtubule polymerization” value is “decreased”; the “polymerization rate and quantity of microtubules” value is “clearly increase”.

These data come from patent US9339508B2, “Use of 3-methoxy-pregnenolone for the preparation of a drug for treating a traumatic brain injury” (MAPREG, priority 2003, dated 2016).
